Experimental data published in patent US9334272B2, “Derivatives of purinic and pyrimidinic antiviral agents and use thereof as potent anticancer agents” (Ramot at Tel-Aviv University Ltd., priority 2007, dated 2016).

How the values were obtained:
[1] = Acute toxicity assay in mice; format: in vivo; settings: male, mouse, in vivo; single per os dose, ICR mice
Text: (§1) Male ICR mice, 8 weeks old (Harlan, Israel) were acclimated for 10 days before administration of the tested compounds. The animals were monitored for two weeks and weighed three times per week.

[2] = test system: ICR mice; assay: Acute toxicity assay in mice; format: in vivo; settings: 2 weeks
Text: as §1

[3] = target: T1, proteasome (Homo sapiens, UniProt P28074); assay: Proteasome activity assay, U-251 cells; format: cell-based; settings: U-251, 50 μM
T1 construct: proteasome activity in U-251 cells treated for 4 or 24 hours; endogenous in cells; host or cells: U-251 cells (lysates of treated cells)
T1 sequence (P28074 60-263): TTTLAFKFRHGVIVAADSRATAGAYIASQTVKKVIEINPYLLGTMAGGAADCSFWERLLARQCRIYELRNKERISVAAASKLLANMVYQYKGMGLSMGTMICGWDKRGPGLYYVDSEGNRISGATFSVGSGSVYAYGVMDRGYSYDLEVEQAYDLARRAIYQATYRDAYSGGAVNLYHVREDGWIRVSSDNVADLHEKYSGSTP
Description: The peptidase or chymotrypsin-like activity of the proteasome was assayed using N-succinyl-Leu-Leu-Val-Tyr-7-amido-4-methylcoumarin. The lysates (100 μL) were incubated with 13 (M of the substrate in 100 mM Tris, pH 7.5, for 1 hour with shaking at room temperature. The reaction was stopped by addition of ice-cold ethanol, and the samples were centrifuged for 5 minutes at 2500 g. The supernatants were collected and the fluorescence was measured with excitation/emission filters of 390/460 nm using the FluoStar fluorimeter. The protein concentration was determined using a BCATM kit (Pierce) and the proteasome activity was derived from the ratio of fluorescence at 460 nm/(g of protein. The percentage of proteasome activity was calculated relative to untreated cells.

[4] = test system: primary rat astrocytes; settings: 50 μM, 24 hours
Description: Brains were removed from neonatal rats, and the cerebral cortex was dissected and minced. The cells were dissociated by vigorous shaking in DMEM supplemented with 20% FCS, and cells from 3 brains were seeded in 20 mL of the medium. After one week, the serum concentration was reduced to 10%.
Cells were seeded in six-well plates (10^5 cells/well) for 24 hours and were then treated as specified, trypsinized, washed with PBS, double-stained with annexin V-FITC (fluorescein isothiocyanate) and propidium iodide, according to the manufacturer's instructions and subjected to flow cytometry analysis (FACScalibur cytometer, Becton Dickinson).

[5] = test system: U-251 cells; assay: Nitric oxide production assay, U-251 cells; format: cell-based, human; settings: 50 μM (mixture 50 μM + 50 μM), 1 hour treatment
Description: U251 cells (5×10^4) were seeded in 24 well plates, and after 24 hours washed and resuspended in PBS. […] Fluorescence was measured with excitation/emission filters of 390/440 nm in a FluoStar fluorimeter. The concentration of nitrate was determined by subtracting the nitrite concentration from the total concentration of nitrite+nitrate.

[6] = test system: 4T1 murine breast carcinoma; assay: Metastatic 4T1 breast carcinoma model; format: in vivo, mice; settings: 25 mg/kg, 4T1 model, p<0.05
Description: The syngeneic murine breast carcinoma metastatic model was performed with 8-10 weeks old BALB-c mice implanted with 4T1 cells. When the tumor volume reached 75-180 mm^3 (after ˜10 days), treatment was initiated for an additional 21 days. At termination, the animals were sacrificed and their lungs removed, stained with Bouin's solution, and lung lesions were scored under an illuminated magnifying glass.

[7] = test system: U-251 cells; assay: Hoechst viability assay, U-251 glioma cells; format: cell-based, human
Description: Cells (in quadruplicate) at the specified density were suspended in 200 μL medium supplemented with 10% FCS seeded in 96-well plates for 24 hours, then exposed to the drugs for 72 hours. The viability of the cells was determined by Hoechst fluorescent assay as described by Nudelman et al., 2005. Leukemic cell viability after 72 hours of treatment was determined by an MTT (3-(4,5-dimethylthiazol-2-yl)-2,5-diphenyltetrazolium bromide) assay as described by Levovich et al., 2007.
IC50 values were determined by linear regression of the percentage of survival following drug titration.

[8] = test system: phospho-H2AX (Ser139); assay: Phospho-H2AX Western blot, U-251 cells; format: cell-based, human; settings: 60 μM, 0.5, 2 or 24 hours, peak after 2 hours
Description: Cell lysates or acid extracted histones were solubilized in a concentrated (×4) loading buffer (62.5 mM Tris-HCl, pH 6.8, 1% SDS, 10% glycerol v/v, 1% dithiothreitol (DTT) and 0.1 mg/ml bromophenol blue). Proteins (10-40 μg) were run on SDS-PAGE, transferred to a nitrocellulose membrane (Schleicher & Schuell, Germany) and probed with the primary antibodies, followed by incubation with a horseradish peroxidase (HRP)-goat anti-rabbit IgG or HRP-rabbit anti-mouse IgG as secondary antibodies. HRP bound to the secondary antibodies was visualized by the enhanced chemiluminescence method using the Western Blotting Luminol reagent (Santa Cruz, Calif., USA). The membrane was exposed for 5 minutes to Chemiluminescence BioMax light film (Kodak, USA) and the intensity of the bands was measured with a VersaDoc instrument with a Quantityl program (Bio-Rad, USA). The fold increase of each specific protein was determined by the ratio of band intensities of treated and untreated cells, normalized to loading control (actin or total histone H3).

[9] = test system: acetylated histone H4; assay: Histone H4 acetylation Western blot, U-251 cells; format: cell-based, human; settings: 2-4 hours of treatment
Description: (§2) For the determination of in vitro histone acetylation, 2.5-3×10^6 cells, seeded in 100 mm culture dishes, were supplemented with RPMI medium containing 10% heat inactivated FCS and were treated with the drugs the following day. At the specified times post-treatment, the cells were removed with a rubber policeman, centrifuged, washed, lysed with lysis buffer (PBS, Nonidet® NP-40 1%, sodium deoxycholate 0.5%, sodium dodecyl sulfate (SDS) 0.1%, 1 mM phenylmethylsulfonyl fluoride (PMSF), 1 mM sodium orthovanadate, and 1 μM each of leupeptin and pepstatin) and centrifuged at 10,000 g for 10 minutes at 4° C. […] The extract was then lyophilized, and protein concentration was determined with a BCA kit (Pierce, USA). […] The fold increase of acetylated histones was determined by the ratio of band intensities of treated and untreated cells or mice, normalized to loading control (total histone H3).
(§3) Cell lysates or acid extracted histones were solubilized in a concentrated (×4) loading buffer (62.5 mM Tris-HCl, pH 6.8, 1% SDS, 10% glycerol v/v, 1% dithiothreitol (DTT) and 0.1 mg/ml bromophenol blue). […] The membrane was exposed for 5 minutes to Chemiluminescence BioMax light film (Kodak, USA) and the intensity of the bands was measured with a VersaDoc instrument with a Quantityl program (Bio-Rad, USA). […]

[10] = test system: acetylated histone H4; assay: In vivo histone H4 acetylation in 4T1 tumors (Western blot); parameters: species or system mice; settings: 100 mg/kg each, 4 hours after treatment, vs vehicle
Description: as §2, §3

Compound: CCCC(CCC)C(=O)Nc1nc2c(ncn2COCCOC(=O)C(CCC)CCC)c(=O)[nH]1 [Compound 6, N-valproyl-9-(2-valproyloxy)ethoxymethylguanine]
- LD50 at 2 weeks [1]: > 750 mg/kg
- Survival (%) ([2]; single per os dose 150 mg/kg): 100%
- Survival (%) ([2]; single per os dose 200 mg/kg): 100%
- Survival (%) ([2]; single per os dose 250 mg/kg): 91.8%
- Survival (%) ([2]; single per os dose 500 mg/kg): 100%
- Survival (%) ([2]; single per os dose 750 mg/kg): 100%
- inhibition at 50 µM ([3]; after 4 hours): > 50%
- inhibition at 50 µM ([3]; after 24 hours): > 75%
- viability of primary culture of astrocytes [4]: did not affect the viability
- NO production [5]: increased NO production in U-251 cells considerably
- lung weight [6]: reduction in lung weight
- number of observed lung lesions [6]: reduction in the number of observed lung lesions
- activity relative to acyclovir [7]: > 100 fold
- IC50 ([7]; Homo sapiens, 72 hours, Hoechst, read-out: IC50): 32 ± 2 µM
- level of phosphorylated H2AX [8]: induced an increase in the level of phosphorylated H2AX
- acetylation of histone H4 [9]: induced acetylation of H4
- levels of acetylated H4 in tumors [10]: significantly higher levels of acetylated H4
